From patent US20170210751A1, “PRMT5 INHIBITORS AND USES THEREOF” (Epizyme, Inc., priority 2014, published 2017)

Experiments:
PRMT5/MEP50 = target: T1, PRMT5/MEP50 (Homo sapiens, UniProt O14744); assay: PRMT5 Biochemical Assay (PRMT5/MEP50 enzyme assay on peptide substrate, 3H-SAM Flashplate); details: PRMT5/MEP50 4 nM, 3H-SAM 75 nM, peptide 40 nM, 30 min preincubation at 25 degrees Celsius
T1 construct: Flag-PRMT5; made in house; host or cells: Spodoptera frugiperda (SF9) insect cells, baculovirus (pDEST8)
Source text: S-adenosylmethionine (SAM), S-adenosylhomocysteine (SAH), bicine, KCl, Tween20, dimethylsulfoxide (DMSO), bovine skin gelatin (BSG), and Tris(2-carboxyethyl)phosphine hydrochloride solution (TCEP) were purchased from Sigma-Aldrich at the highest level of purity possible. ^3H-SAM was purchase from American Radiolabeled Chemicals with a specific activity of 80 Ci/mmol. 384-well streptavidin Flashplates were purchased from PerkinElmer.
Peptide representative of human histone H4 residues 1-15 was synthesized with a C-terminal linker-affinity tag motif and a C-terminal amide cap by 21st Century Biochemicals. The peptide was high high-performance liquid chromatography (HPLC) purified to greater than 95% purity and confirmed by liquid chromatography mass spectrometry (LC-MS). The sequence was Ac-[…][K-Biot]-amide (SEQ ID NO.:3).
Full-length human PRMT5 (NM_006109.3) transcript variant 1 clone was amplified from a fetal brain cDNA library, incorporating flanking 5′ sequence encoding a FLAG tag ([…]) (SEQ ID NO.:4) fused directly to Ala 2 of PRMT5. Full-length human MEP50 (NM_024102) clone was amplified from a human testis cDNA library incorporating a 5′ sequence encoding a 6-histidine tag (MHHHHHH) (SEQ ID NO.:5) fused directly to Arg 2 of MEP50. The amplified genes were sublconed into pENTR/D/TEV (Life Technologies) and subsequently transferred by Gateway™ attL×attR recombination to pDEST8 baculvirus expression vector (Life Technologies).
Recombinant baculovirus and Baculovirus-Infected Insect Cells (BIIC) were generated according to Bac-to-Bac kit instructions (Life Technologies) and Wasilko, 2006, respectively. Protein over-expression was accomplished by infecting exponentially growing Spodoptera frugiperda (SF9) cell culture at 1.2×10^6 cell/ml with a 5000 fold dilution of BIIC stock. Infections were carried out at 27° C. for 72 hours, harvested by centrifugation, and stored at −80° C. for purification.
Flag-PRMT5/6His-MeP50 was eluted with 300 mM Imidazole in the same buffer. The purity of recovered protein was 87%. Reference: Wasilko, D. J. and S. E. Lee: “TIPS: titerless infected-cells preservation and scale-up” Bioprocess J., 5 (2006), pp. 29-32.
General Procedure for PRMT5/MEP50 Enzyme Assays on Peptide Substrates.
The assays were all performed in a buffer consisting of 20 mM Bicine (pH=7.6), 1 mM TCEP, 0.005% BSG, and 0.002% Tween20, prepared on the day of use. Compounds in 100% DMSO (1 ul) were spotted into a polypropylene 384-well V-bottom plates (Greiner) using a Platemate Plus outfitted with a 384-channel head (Thermo Scientific). DMSO (1 ul) was added to Columns 11, 12, 23, 24, rows A-H for the maximum signal control and 1 ul of SAH, a known product and inhibitor of PRMT5/MEP50, was added to columns 11, 12, 23, 24, rows I-P for the minimum signal control. A cocktail (40 ul) containing the PRMT5/MEP50 enzyme and the peptide was added by Multidrop Combi (Thermo-Fisher). The compounds were allowed to incubate with PRMT5/MEP50 for 30 min at 25 degrees Celsius, then a cocktail (10 ul) containing ^3H-SAM was added to initiate the reaction (final volume=51 ul). The final concentrations of the components were as follows: PRMT5/MEP50 was 4 nM, ^3H-SAM was 75 nM, peptide was 40 nM, SAH in the minimum signal control wells was 100 uM, and the DMSO concentration was 1%. The assays were stopped by the addition of non-radioactive SAM (10 ul) to a final concentration of 600 uM, which dilutes the ^3H-SAM to a level where its incorporation into the peptide substrate is no longer detectable. 50 ul of the reaction in the 384-well polypropylene plate was then transferred to a 384-well Flashplate and the biotinylated peptides were allowed to bind to the streptavidin surface for at least 1 hour before being washed three times with 0.1% Tween20 in a Biotek ELx405 plate washer. […]

Z-138 cell line = assay: Z-138 Proliferation Assay (Cell Titer Glo); type: cell-based; details: Homo sapiens, 120 h; Z-138 cells, 5 days incubation, ATP (Cell Titer Glo)
Source text: Z-138 Proliferation Assay
Z-138 suspension cells were purchased from ATCC (American Type Culture Collection, Manassas, Va.). RPMI/Glutamax medium, penicillin-streptomycin, heat inactivated fetal bovine serum were purchased from Life Technologies, Grand Island, N.Y., USA. V-bottom polypropylene 384-well plates were purchased from Greiner Bio-One, Monroe, N.C., USA. Cell culture 384-well white opaque plates were purchased from Perkin Elmer, Waltham, Mass., USA. Cell-Titer Glo® was purchased from Promega Corporation, Madison, Wis., USA. SpectraMax M5 plate reader was purchased from Molecular Devices LLC, Sunnyvale, Calif., USA.
Z-138 suspension cells were maintained in growth medium (RPMI 1640 supplemented with 10% v/v heat inactivated fetal bovine serum and cultured at 37° C. under 5% CO2. Under assay conditions, cells were incubated in assay medium (RPMI 1640 supplemented with 10% v/v heat inactivated fetal bovine serum and 100 units/mL penicillin-streptomycin) at 37° C. under 5% CO2.
For the assessment of the effect of compounds on the proliferation of the Z-138 cell line, exponentially growing cells were plated in 384-well white opaque plates at a density of 10,000 cells/ml in a final volume of 50 μl of assay medium. A compound source plate was prepared by performing triplicate nine-point 3-fold serial dilutions in DMSO, beginning at 10 mM (final top concentration of compound in the assay was 20 μM and the DMSO was 0.2%). A 100 nL aliquot from the compound stock plate was added to its respective well in the cell plate. […] After addition of compounds, assay plates were incubated for 5 days at 37° C., 5% CO2, relative humidity >90%.
Cell viability was measured by quantitation of ATP present in the cell cultures, adding 35 μl of Cell Titer Glo® reagent to the cell plates. Luminescence was read in the SpectraMax M5 microplate reader. The concentration of compound inhibiting cell viability by 50% was determined using a 4-parametric fit of the normalized dose response curves.

T1 sequence (O14744 with tags, fused parts or gaps): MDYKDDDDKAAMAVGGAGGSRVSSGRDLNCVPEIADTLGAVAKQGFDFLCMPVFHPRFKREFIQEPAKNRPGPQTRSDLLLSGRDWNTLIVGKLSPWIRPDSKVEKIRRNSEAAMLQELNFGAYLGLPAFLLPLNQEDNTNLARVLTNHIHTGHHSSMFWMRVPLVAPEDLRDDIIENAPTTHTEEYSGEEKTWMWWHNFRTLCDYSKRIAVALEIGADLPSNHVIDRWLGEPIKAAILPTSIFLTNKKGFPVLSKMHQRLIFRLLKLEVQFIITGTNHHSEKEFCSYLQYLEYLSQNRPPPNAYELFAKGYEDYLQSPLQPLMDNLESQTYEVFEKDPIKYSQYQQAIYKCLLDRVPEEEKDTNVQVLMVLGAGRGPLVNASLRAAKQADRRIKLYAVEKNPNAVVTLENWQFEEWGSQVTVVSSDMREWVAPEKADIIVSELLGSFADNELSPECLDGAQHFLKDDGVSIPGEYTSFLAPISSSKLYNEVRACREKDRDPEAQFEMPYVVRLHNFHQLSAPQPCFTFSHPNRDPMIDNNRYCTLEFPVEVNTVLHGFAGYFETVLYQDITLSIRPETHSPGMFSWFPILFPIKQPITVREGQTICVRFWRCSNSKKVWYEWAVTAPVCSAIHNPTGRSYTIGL
T1 sequence (Q9BQA1 with tags, fused parts or gaps partner limits assumed): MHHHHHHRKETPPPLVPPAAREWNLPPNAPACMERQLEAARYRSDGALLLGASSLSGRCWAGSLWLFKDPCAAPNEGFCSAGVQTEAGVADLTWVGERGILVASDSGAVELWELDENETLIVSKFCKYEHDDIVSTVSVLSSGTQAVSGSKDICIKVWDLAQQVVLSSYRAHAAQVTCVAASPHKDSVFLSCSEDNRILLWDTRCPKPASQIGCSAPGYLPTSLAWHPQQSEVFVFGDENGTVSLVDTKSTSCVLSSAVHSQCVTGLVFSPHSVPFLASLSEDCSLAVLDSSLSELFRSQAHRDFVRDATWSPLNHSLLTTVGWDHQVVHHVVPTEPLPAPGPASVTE

## O=C(NC[C@H](O)CN1CCc2sccc2C1)c1cc(NC2COC2)ncn1 [Compound 1-1, (S)—N-(3-(6,7-dihydrothieno[3,2-c]pyridin-5(4H)-yl)-2-hydroxypropyl)-6-(oxetan-3-ylamino)pyrimidine-4-carboxamide]
PRMT5/MEP50
  IC50: < 100 nM
Z-138 cell line
  EC50: 1000 to 10000 nM

## CC(=O)N1CC(Nc2cc(C(=O)NC[C@H](O)CN3CCc4sccc4C3)ncn2)C1 [Compound 1-2, (S)-6-((1-acetylazetidin-3-yl)amino)-N-(3-(6,7-dihydrothieno[3,2-c]pyridin-5(4H)-yl)-2-hydroxypropyl)pyrimidine-4-carboxamide]
PRMT5/MEP50
  IC50: < 100 nM
Z-138 cell line
  EC50: 101 to 1000 nM

## CC(=O)N1CCC(Nc2cc(C(=O)NC[C@H](O)CN3CCc4sccc4C3)ncn2)CC1 [Compound 1-3, (S)-6-((1-acetylpiperidin-4-yl)amino)-N-(3-(6,7-dihydrothieno[3,2-c]pyridin-5(4H)-yl)-2-hydroxypropyl)pyrimidine-4-carboxamide]
PRMT5/MEP50
  IC50: < 100 nM
Z-138 cell line
  EC50: 101 to 1000 nM

## O=C(COc1cccc2cccnc12)NCC(O)CN1CCc2sccc2C1 (stereo not shown) [Compound 1-4, N-(2-hydroxy-3-{4H,5H,6H,7H-thieno[3,2-c]pyridin-5-yl}propyl)-2-(quinolin-8-yloxy)acetamide]
PRMT5/MEP50
  IC50: < 100 nM
Z-138 cell line
  EC50: 1000 to 10000 nM

## CC(=O)N1CCC(Nc2cc(C(=O)NC[C@H](O)CN3CCc4nc(C)sc4C3)ncn2)CC1 [Compound 1-7, (S)-6-((1-acetylpiperidin-4-yl)amino)-N-(2-hydroxy-3-(2-methyl-6,7-dihydrothiazolo[5,4-c]pyridin-5(4H)-yl)propyl)pyrimidine-4-carboxamide]
PRMT5/MEP50
  IC50: 1000 to 10000 nM
Z-138 cell line
  EC50: > 5000 nM

## Cc1nc2c(s1)CN(C[C@@H](O)CNC(=O)c1cc(NC3COC3)ncn1)CC2 [Compound 1-8, (S)—N-(2-hydroxy-3-(2-methyl-6,7-dihydrothiazolo[5,4-c]pyridin-5(4H)-yl)propyl)-6-(oxetan-3-ylamino)pyrimidine-4-carboxamide]
PRMT5/MEP50
  IC50: > 10000 nM
Z-138 cell line
  EC50: > 5000 nM

## Cc1csc2c1CN(C[C@@H](O)CNC(=O)c1cc(NC3COC3)ncn1)CC2 [Compound 1-11, (S)—N-(2-hydroxy-3-(3-methyl-6,7-dihydrothieno[3,2-c]pyridin-5(4H)-yl)propyl)-6-(oxetan-3-ylamino)pyrimidine-4-carboxamide]
PRMT5/MEP50
  IC50: 101 to 1000 nM
Z-138 cell line
  EC50: 1000 to 10000 nM

## CC(=O)N1CC(Nc2cc(C(=O)NC[C@H](O)CN3CCc4scc(C)c4C3)ncn2)C1 [Compound 1-12, (S)-6-((1-acetylazetidin-3-yl)amino)-N-(2-hydroxy-3-(3-methyl-6,7-dihydrothieno[3,2-c]pyridin-5(4H)-yl)propyl)pyrimidine-4-carboxamide]
PRMT5/MEP50
  IC50: < 100 nM
Z-138 cell line
  EC50: 101 to 1000 nM

## CC(=O)N1CCC(Nc2cc(C(=O)NC[C@H](O)CN3CCc4scc(C)c4C3)ncn2)CC1 [Compound 1-13, (S)-6-((1-acetylpiperidin-4-yl)amino)-N-(2-hydroxy-3-(3-methyl-6,7-dihydrothieno[3,2-c]pyridin-5(4H)-yl)propyl)pyrimidine-4-carboxamide]
PRMT5/MEP50
  IC50: < 100 nM
Z-138 cell line
  EC50: 101 to 1000 nM

## CC(=O)N1CCC(Nc2cc(C(=O)NC[C@H](O)CN3CCc4scc(C)c4C3)ccn2)CC1 [Compound 1-14, (S)-2-((1-acetylpiperidin-4-yl)amino)-N-(2-hydroxy-3-(3-methyl-6,7-dihydrothieno[3,2-c]pyridin-5(4H)-yl)propyl)isonicotinamide]
PRMT5/MEP50
  IC50: < 100 nM
Z-138 cell line
  EC50: 101 to 1000 nM

## O=C(NC[C@H](O)CN1CCc2ncsc2C1)c1cc(NC2COC2)ncn1 [Compound 1-16, (S)—N-(3-(6,7-dihydrothiazolo[5,4-c]pyridin-5(4H)-yl)-2-hydroxypropyl)-6-(oxetan-3-ylamino)pyrimidine-4-carboxamide]
PRMT5/MEP50
  IC50: > 10000 nM
Z-138 cell line
  EC50: > 5000 nM

## CC(=O)N1CC(Nc2cc(C(=O)NC[C@H](O)CN3CCc4ncsc4C3)ncn2)C1 [Compound 1-17, (S)-6-((1-acetylazetidin-3-yl)amino)-N-(3-(6,7-dihydrothiazolo[5,4-c]pyridin-5(4H)-yl)-2-hydroxypropyl)pyrimidine-4-carboxamide]
PRMT5/MEP50
  IC50: > 10000 nM
Z-138 cell line
  EC50: > 5000 nM

## CC(=O)N1CCC(Nc2cc(C(=O)NC[C@H](O)CN3CCc4ncsc4C3)ncn2)CC1 [Compound 1-18, (S)-6-((1-acetylpiperidin-4-yl)amino)-N-(3-(6,7-dihydrothiazolo[5,4-c]pyridin-5(4H)-yl)-2-hydroxypropyl)pyrimidine-4-carboxamide]
PRMT5/MEP50
  IC50: 1000 to 10000 nM
Z-138 cell line
  EC50: > 5000 nM

## CC(=O)N1CCC(Nc2cc(C(=O)NC[C@H](O)CN3CCc4ncsc4C3)ccn2)CC1 [Compound 1-19, (S)-2-((1-acetylpiperidin-4-yl)amino)-N-(3-(6,7-dihydrothiazolo[5,4-c]pyridin-5(4H)-yl)-2-hydroxypropyl)isonicotinamide]
PRMT5/MEP50
  IC50: 1000 to 10000 nM
Z-138 cell line
  EC50: > 5000 nM

## Nc1nc2c(s1)CCN(C[C@@H](O)CNC(=O)c1cc(NC3COC3)ncn1)C2 [Compound 1-20, (S)—N-(3-(2-amino-6,7-dihydrothiazolo[4,5-c]pyridin-5(4H)-yl)-2-hydroxypropyl)-6-(oxetan-3-ylamino)pyrimidine-4-carboxamide]
PRMT5/MEP50
  IC50: > 10000 nM
Z-138 cell line
  EC50: > 5000 nM

## Nc1nc2c(s1)CN(C[C@@H](O)CNC(=O)c1cc(NC3COC3)ncn1)CC2 [Compound 1-23]
PRMT5/MEP50
  IC50: > 10000 nM
Z-138 cell line
  EC50: > 5000 nM

## CC(=O)N1CC(Nc2cc(C(=O)NC[C@H](O)CN3CCc4sc(C)nc4C3)ncn2)C1 [Compound 1-27]
PRMT5/MEP50
  IC50: 1000 to 10000 nM
Z-138 cell line
  EC50: > 5000 nM

## CC(=O)N1CC(Nc2cc(C(=O)NC[C@H](O)CN3CCc4sc(N)nc4C3)ncn2)C1 [Compound 1-28]
PRMT5/MEP50
  IC50: 1000 to 10000 nM
Z-138 cell line
  EC50: > 5000 nM

## CC(=O)N1CC(Nc2cc(C(=O)NC[C@H](O)CN3CCc4nc(N)sc4C3)ncn2)C1 [Compound 1-29]
PRMT5/MEP50
  IC50: 1000 to 10000 nM
Z-138 cell line
  EC50: > 5000 nM

## CC(=O)N1CCC(Nc2cc(C(=O)NC[C@H](O)CN3CCc4scnc4C3)ccn2)CC1 [Compound 1-30]
PRMT5/MEP50
  IC50: 1000 to 10000 nM
Z-138 cell line
  EC50: > 5000 nM
